The record followed here is patent publication US20080241194A1, “COMPOSITIONS AND METHODS FOR PROTECTING ORGANS, TISSUE AND CELLS FROM IMMUNE SYSTEM-MEDIATED DAMAGE” (THE BOARD OF TRUSTEES OF THE LELAND STANFORD JUNIOR …, priority 1998, published 2008).

The test system of one data set is HUVEC. As to the kind of experiment: ^51Cr release CIK cytotoxicity assay, endothelial cell targets pre-treated with BFA, protein or peptide. The format is cell-based, human. Details: block of CIK mediated lysis of HUVECs: dose or concentration left out as unconfirmed. As to conditions: for protection of EC from CIK lysis by pre-incubation with purified native protein: gelatin purified protein, 30 minutes, washed before CIK addition. On the procedure: (§1) Target cells were metabolically labelled with ^51Cr (Dupont—New England Nuclear, Boston, Mass.) by incubating 1×10^6 cells in […] ^51Cr at 37° C. for 1-1.5 hours. The labelled cells were washed three times with phosphate buffered saline (PBS) containing 0.1% bovine serum albumin. The labelled cells were distributed in flat-bottomed 96 well microtiter plates at a concentration of 2×10^4 cells/well in triplicate. Effector (CIK) cells were added at the indicated ratios. Mabs were added prior to the addition of effector cells, and incubated for 15-30 minutes at room temperature. The final volume of the assay mixture in each well was 0.2 ml. After 4 hours at 37° C., the cells were collected by centrifugation and an aliquot of the supernatant was counted in a gamma counter (Micromedic Systems, Horsham, Pa.). The percentage of specific ^51Cr release was calculated according to the following equation: […]
Spontaneous release was obtained by incubating the labelled cells in complete medium alone and maximal release by treatment of the cells with 1% NP-40.
For brefeldin A (BFA) treatment, freshly confluent HUVEC monolayers, nonadherent target cells or CIK cells at 0.5-2×10^6 cells per ml were incubated with medium supplemented with 0.5-10 μg of brefeldin A (B6hringer Mannheim GmbH, Mannheim, Germany) per ml medium and incubated for 2-6 hours in a humidified incubator with 5% carbon dioxide at 37° C. BFA was dissolved at 100 μg per ml in 70% ethanol and used fresh or stored up to 4 weeks at −20° C. Prior to cytotoxicity assay the cells were rinsed three times with PBS, and fresh medium not containing BFA was added for the remainder of the assay (FIG. 4).
Both HUVEC and OCI-Ly8 cells were incubated with BFA at concentrations of 0, 2.5, 5, 7.5 and 10 μM for 6 hours as described above, washed, labeled with ^51Cr and used in a cytotoxicity assay with d21 CIK cells at an E:T ratio of 20:1. Preincubation of EC targets with 2.5 μM BFA reduced CIK mediated cytotoxicity by 40%.
Subsequent to ^51Cr labeling but prior to addition of effector cells 10-200 μg FPLC purified Hsp47 (Example 7) protein or 10 nM to 10 μM HPLC purified peptide […] (SEQ ID NO:3) (Example 8), both in sterile PBS at pH 7.4 and diluted to the final concentration with RPMI, were added to targets per ml of medium and incubated for 30 minutes at 37° C. in a humidified atmosphere of 5% CO2. In assays using purified protein, targets were subjected to three subsequent washes with 10 volumes of Ca^2+, Mg^2+ and 5% FCS containing PBS prior to providing fresh standard culture medium to the target cells. In assays using purified peptide, the added peptide was present for the entire assay. The remainder of the assay was performed as detailed above, at 37° C. in a humidified atmosphere of 5% CO2.

The test system of a further data set is OCI-Ly8 tumor cell. As to the kind of experiment: ^51Cr release CIK cytotoxicity assay, tumor targets. The format is cell-based, human. As to conditions: OCI-Ly8 incubated with BFA 0-10 μM for 6 hours, E:T 20:1. On the procedure: as §1
Spontaneous release was obtained by incubating the labelled cells in complete medium alone and maximal release by treatment of the cells with 1% NP-40. […]

Another data set relates to huHsp47 RNA. As to the kind of experiment: Northern analysis of huHsp47 RNA expression in BFA treated EC. As to conditions: EC under BFA treatment, 0, 2 and 6 hour time points. The format is cell-based, human. On the procedure:
Northern analysis of huHsp47 RNA expression was carried out via a^32P-ATP nick translation labeling of the agarose gel purified full-length huHSP47 cDNA as probe and human beta action (a kind gift of Dr. S.N. Cohen) cDNA as internal control probe. Total RNA was harvested at 0 hour, 2 hour and 6 hour time points from EC undergoing BFA treatment. RNA for each time point was purified, denatured, subjected to formamide flatbed agarose gel electrophoresis, transferred to nitrocellulose, prehybridized, hybridized with the ^32P-labelled probes, washed under stringent conditions and autoradiographed without intensifier screens at −80° C. using techniques well known to those skilled in the art (see Sambrook et al. Molecular Cloning, A Laboratory Manual, second edition, Cold Spring Harbor Laboratory Press, 1989).

Another data set concerns 46.5 KDa protein (Hsp47). As to the kind of experiment: Immunoprecipitation and autoradiography of ^35S labeled 46.5 KDa protein from EC. It counts as cell-based, human. On the procedure:
For metabolic ^35S methionine/cysteine labelling cells were cultured for 22 hours in cysteine and methionine free RPMI 1640 or Hams-F12K (Irvine Scientific, Santa Ana, Calif.) media with dialyzed FCS, otherwise as described above, prior to the addition of 100 μCi ml-1 of Translabel (PIERCE/Amersham, Amersham, UK) ^35S methionine/cysteine at the start of BFA, control treatment and incubated for the indicated times. Pulse-chase labelled proteins were analyzed by SDS-PAGE, western analysis or autoradiography and silver staining.
Immunoprecipitation was carried out by first preparing preformed immune complexes as follows: Purified specific mouse monoclonal or rabbit polyclonal antibody were incubated in stoichiometric ratio with purified secondary goat anti-mouse or anti-rabbit antibody at a concentration of 10 μg ml-1 of 150 mM NaCl, 10 mM Tris-HCl, 1% (w/v) NP40, pH 7.8 with gentle agitation for 3 hours at 4° C. In a separate reaction their respective isotype matched control antibodies were coupled to protein A sepharose beads (Pharmacia, Uppsala, Sweden). […] The specific immune precipitate was recovered by centrifugation at 13,000 rpm for 30 minutes at 4° C., washed twice with 10 mM Tris-HCl at pH 6.8 and analyzed by SDS-PAGE and subsequent silver stain, transfer to solid support and streptavidin-AP detection and autoradiography. […]

Data set [1] concerns the target receptors for huHsp47 on CIK cells. Briefly: FACS of mature d21 CIK cells stained with 10 ug/ml eGFP-huHsp47, PE-CD56 co-staining.

In the case of `CC1CCCC=CC2CC(O)CC2C(O)C=CC(=O)O1` (stereo not shown) [BFA, 1,6,7,8,9,11a,12,13,14,14a-decahydro-1,13-dihydroxy-6-methyl-4H-cyclopent[f]oxacyclotridecin-4-one, reference compound], the “suppression of CIK mediated lysis of EC” value in the data set with HUVEC (BFA 0, 2.5, 5, 7.5 and 10 μM for 6 hours, E:T 20:1) is given as “suppress the CIK mediated lysis of EC in a dose dependent manner”. Further, the “persistence of resistant EC state after removal of the agent” value in the data set on HUVEC (after BFA removal) was “at least six hours”. In addition, the “block of CIK mediated lysis of HUVECs” value with HUVEC (preincubation in BFA (so in the source), 6 hours, E:T 20:1) is given as “completely block”. Further, the “reduction of CIK mediated cytotoxicity against EC targets” value in the data set with HUVEC (preincubation with 2.5 μM BFA for 6 hours, d21 CIK, E:T 20:1) stood at 40%. The “effect on ability of CIK cells to lyse tumor targets” value in the data set on OCI-Ly8 tumor cell was “did not affect”. Moreover, in the data set on huHsp47 RNA, the “expression of housekeeping gene beta action” value was “does not affect” and the huHsp47 gene expression result is listed as “does upregulate”. The “^35S labeled 46.5 KDa protein in IP from EC” value in the data set with 46.5 KDa protein (Hsp47) (non-protective dose of 30 μM BFA) is listed as “not detectable”. For the same molecule, in the data set with 46.5 KDa protein (Hsp47) (protective dose of 10 μm BFA), the “^35S labeled 46.5 KDa protein in IP from EC” value is “contained a ^35S labeled 46.5 KDa protein”.

In data set [1], “huHsp47δRDEL-enhanced green fluorescent protein (eGFP) fusion protein (from UniProt P50454 19-414)” displayed a percent of cells positive for both eGFP-huHsp47 and PE-CD56 probes of 26%.

B1: huHsp47: native human Hsp47, 46.5 KDa protein gelatin-affinity purified from BFA induced HUVEC (protein)
chain: AEVKKPVEAAAPGTAEKLSSKATTLAEPSTGLAFSLYQAMAKDQAVENILVSPVVVASSLGLVSLGGKATTASQAKAVLSAEQLRDEEVHAGLGELLRSLSNSTARNVTWKLGSRLYGPSSVSFADDFVASSKQHYNCEHSKINFPDKRSALQSINEWAAQTTDGKLPEVTKDVESTDGALLVNAMFFKPHWDEKFHHKMVDNRGFMVTRSYTVGVTMMHRTGLYNYYDDEKEKLQLVEMPLAHKLSSLIILMPHHVEPLERLEKLLTKEQLKIWMGKMQKKAVAISLPKGVVEVTHDLQKHLAGLGLTEAIDKNKADLSRMSGKKDLYLASVFHATAFELDTDGNPFDQDIYGREELRSPKLFYADHPFIFLVRDTQSGSLLFIGRLVRLKGDKMRDEL
Turning to B1, in the data set on HUVEC (20 μm of gelatin-affinity purified huHsp47 per 300 μl), the “protection of EC from CIK mediated lysis” value is recorded as “completely protect”. Moreover, the results for the “protection of EC from CIK lysis by pre-incubation with purified native protein” value with HUVEC and in the data set on HUVEC (listed as p46.5) were “protects EC” and “protect previously CIK sensitive EC in a dose responsive fashion”, respectively.
